Legend:
Caco-2 [1] = experiment: cell viability relative to DMSO; higher = less toxic; conditions: 72 h
U2OS [2] = experiment: as above; conditions: 72 h
Vero E6 [3] = experiment: as above; conditions: 72 h
Calu-3 [4] = experiment: as above; conditions: 72 h
HepG2 [5] = experiment: as above; conditions: 72 h
A549-ACE2 = experiment: drug-induced phospholipidosis relative to tamoxifen; higher = more phospholipidosis
[6] = system: A549-ACE2 infected with SARS-CoV-2; experiment: morphology score (similarity to uninfected cells); higher = more like uninfected cells; conditions: 24 h
Caco-2 [7] = experiment: drug sensitivity score (DSS) for viability; higher = more toxic; extreme values may be limits of the assay; conditions: 72 h
U2OS [8] = experiment: as above; conditions: 72 h
Vero E6 [9] = experiment: as above; conditions: 72 h
Calu-3 [10] = experiment: as above; conditions: 72 h
HepG2 [11] = experiment: as above; conditions: 72 h
[12] = system: A549-ACE2 infected with SARS-CoV-2; experiment: SARS-CoV-2 infection rate relative to DMSO; higher = more infection; conditions: 24 h
U2OS [13] = experiment: relative viability EC50 (midpoint between 100% and the lowest measured viability); higher = less toxic; conditions: 72 h
Vero E6 [14] = experiment: as above; conditions: 72 h
Calu-3 [15] = experiment: as above; conditions: 72 h
HepG2 [16] = experiment: as above; conditions: 72 h
[17] = system: A549-ACE2 infected with SARS-CoV-2; experiment: cell count relative to DMSO; higher = less toxic; conditions: 24 h
Caco-2 [18] = experiment: relative viability EC50 (midpoint between 100% and the lowest measured viability); higher = less toxic; conditions: 72 h

CCCCCC(=O)O[C@]1(C(C)=O)CC[C@H]2[C@@H]3CCC4=CC(=O)CC[C@]4(C)[C@H]3CC[C@@]21C [17-hydroxyprogesterone-caproate]
Conditions | SARS-CoV-2 infection rate, [12] [%] | cell count, [17] [%] | cell viability, Caco-2 [1] [%] | cell viability, Calu-3 [4] [%] | cell viability, HepG2 [5] [%] | cell viability, U2OS [2] [%] | cell viability, Vero E6 [3] [%] | morphology score, [6]
1 nM | – | – | 92.7 | 86.9 | 97.1 | 98.1 | 97.8 | –
10 nM | – | – | 95.9 | 99 | 96.6 | 95.7 | 103 | –
100 nM | – | – | 107 | 100 | 98 | 99.7 | 95.1 | –
0.3 µM | 95 | 103 | – | – | – | – | – | 0.25
1000 nM | – | – | 92.8 | 88.6 | 97.6 | 99.4 | 95.4 | –
3 µM | 88 | 104 | – | – | – | – | – | 0.34
10000 nM | – | – | 64.7 | 99.5 | 94.8 | 95.9 | 103 | –
10 µM | 81 | 106 | – | – | – | – | – | 0.47
30 µM | 34 | 104 | – | – | – | – | – | 0.79

drug-induced phospholipidosis [%], A549-ACE2
Conditions | 0.3 µM | 0.833333 µM | 3.33333 µM | 6.66667 µM | 10 µM | 30 µM
24 h | 6.66 | 6.09 | 4.63 | 8.81 | 8.05 | 21.5
48 h | 5.77 | 4.75 | 0.98 | 3.88 | 3.43 | 9.55
72 h | 6.76 | 2.38 | 2.24 | 4.3 | 4.77 | 13.6

Conditions | drug sensitivity score | relative viability EC50 [µM]
Caco-2 [7] | 2.8 | –
Calu-3 [10] | 0 | –
Calu-3 [15] | – | > 10
HepG2 [11] | 0 | –
HepG2 [16] | – | > 10
U2OS [8] | 0 | –
U2OS [13] | – | > 10
Vero E6 [9] | 0 | –
Vero E6 [14] | – | > 10

CN1C2C=C(c3sccc3Br)CC1CC2 (configuration not stated) [NS-3861]
Conditions | SARS-CoV-2 infection rate, [12] [%] | cell count, [17] [%] | cell viability, Caco-2 [1] [%] | cell viability, HepG2 [5] [%] | cell viability, U2OS [2] [%] | cell viability, Vero E6 [3] [%] | morphology score, [6]
1 nM | – | – | 101 | 107 | 97.6 | 98.9 | –
10 nM | – | – | 103 | 107 | 101 | 99.5 | –
100 nM | – | – | 92.4 | 97.2 | 95.3 | 99 | –
0.3 µM | 97 | 99 | – | – | – | – | 0
1000 nM | – | – | 106 | 89.2 | 100 | 96.7 | –
3 µM | 83 | 109 | – | – | – | – | 0.45
10000 nM | – | – | 101 | 92.5 | 94.6 | 97.2 | –
10 µM | 75 | 104 | – | – | – | – | 0.4
30 µM | 41 | 113 | – | – | – | – | 0.77

drug-induced phospholipidosis [%], A549-ACE2
Conditions | 0.3 µM | 0.833333 µM | 3.33333 µM | 6.66667 µM | 10 µM | 30 µM
24 h | 1.11 | -3.88 | -0.69 | -1.21 | 2.15 | 14.7
48 h | 2.52 | -3.07 | -1.18 | -0.52 | -0.04 | 12.8
72 h | 4.83 | -2.54 | -0.115 | 0.151 | 0.487 | 12.9

Conditions | drug sensitivity score | relative viability EC50 [µM]
Caco-2 [7] | 0 | –
Caco-2 [18] | – | > 10
HepG2 [11] | 0.3 | –
HepG2 [16] | – | > 10
U2OS [8] | 0 | –
U2OS [13] | – | > 10
Vero E6 [9] | 0 | –
Vero E6 [14] | – | > 10

Reference: the supplement of paper PMC13380429
